The test system of data set [1] is Arabidopsis control (wt, non-transformed) plants. As to the kind of experiment: In-planta screen, control (non-transformed, wt) plants. The format is in vivo. The text has this: The hppd coding region was cloned into pPA35H binary vector under the control of the CaMV35S constitutive promoter and HSP terminator and was used to transform Arabidopsis plants using agrobacterium according to the dipping flower method, as essentially described in WO 2018/178975. T1 generation transformed seeds were germinated on Basta selection (Bayer) according to manufacturer instructions. […] HPPD resistant plants were detected one-week post germination.

Data set [2] deals with Arabidopsis plants transformed with Trichoderma spp-HPPD gene. As to the kind of experiment: In-planta screen of plants transformed with fungal HPPD. The format is in vivo. The protocol: The hppd coding region was cloned into pPA35H binary vector under the control of the CaMV35S constitutive promoter and HSP terminator and was used to transform Arabidopsis plants using agrobacterium according to the dipping flower method, as essentially described in WO 2018/178975. […] 3-4 days post germination, plants were treated with 0.1% and 0.05% Tembotrione (Laudis (Bayer)). HPPD resistant plants were detected one-week post germination.

The subject of data set [3] is HPPD derived from the novel Trichoderma fungus (TP). Briefly: Bacterial HPPD-activity assay, E. coli BL21 (DE3) transformed with Trichoderma HPPD, brown halo. The data set is classed as cell-based, Trichoderma spp. Particulars: E. coli BL21 (DE3) on agar screen plates, 25° C., 4 days.
Experimental: (§1) E. coli BL21 (DE3) were transformed with the expression vector and monitored for HPPD activity using a colorimetric method as essentially explained in Rocaboy-Faquet. E. et al. (DOI: 10.1007/s00253-014-5793-5) with two minor modifications, namely: 1) The transformed bacteria were inoculated on an agar based medium instead of a liquid medium; 2) The screen was performed at 25° C. for 4 days.
(§2) The screen media was prepared with a concentration gradient of HPPD inhibitors at the indicated concentrations and the transformed bacteria were inoculated on the screening agar plates. HPPD activity was detected by a brown halo resulting from the HPPD-mediated conversion of p-hydroxyphenylpyruvate (HPP) into homogentisate (HGA), which later is oxidized to a melanin-like pigment. Tembotrione resistance of the transformed bacteria was compared to that of plates inoculated with E. coli BL21 (DE3) transformed with either an empty pET16 vector or a pET16 vector transformed with Arabidopsis thaliana hppd cDNA (accession no. AF047834).
Another data set has as its system Camelina plants. As to the kind of experiment: In-planta screen of soy HPPD mutants. The data set is classed as in vivo. The following applies: T1 Camelina, Laudis (Tembotrione) 0.075% three days post seeding, images 19 days post treatment. The protocol:
T1 generation transformed seeds of Camelina plants with the Soy HPPD (GmHPPD) mutated gene as compared to wt. Plant were treated with Laudis (Tembotrione) 0.075% three days post seeding. EGFP transformed plants were used as control. Images taken 19 days post treatment. The following were tested: • GmHPPD—SEQ ID NO: 118 the native G. max HPPD (Accession number: ABQ96868) • GmHPPD.1=GmHPPD (SEQ ID NO: 118) mutated to substitute its motif 1 with motif 1 of SEQ ID NO: 1—i.e. to include amino acid sequences set forth in SEQ ID NO: 9-10 or 38; • GmHPPD.2=GmHPPD (SEQ ID NO: 118) mutated to substitute its motif 6.2 (SEQ ID NO: 68) first Y with motif 6.2 of SEQ ID NO: 1 (SEQ ID NO: 20)—i.e. to include the mutation Tyr185Phe to include SEQ ID NO: 157; • GmHPPD.3=GmHPPD (SEQ ID NO: 118) mutated to substitute its motif 7.2 (SEQ ID NO: 70) first Y with motif 7.2 of SEQ ID NO: 1 (SEQ ID NO: 22)—i.e. to include the mutation Tyr243Phe; • GmHPPD.4=GmHPPD (SEQ ID NO: 118) mutated to substitute its motif 2.1 (SEQ ID NO: 57) with motif 2.1 of SEQ ID NO: 1 (SEQ ID NO: 11)—i.e. to include the mutation Ala254Trp to include SEQ ID NO: 129; • GmHPPD.5=GmHPPD (SEQ ID NO: 118) mutated to substitute its motif 3.1 with motif 3.1 of SEQ ID NO: 1—i.e. to include the replacement mutations 338-MPSPPP-343 to INVPG.

The next data set deals with G. max HPPD. Briefly: HPPD-activity screen of soy HPPD mutants in E. coli BL21 (DE3). The data set is classed as cell-based. The text has this:
A brown halo is indicative of HPPD activity • GmHPPD SEQ ID NO: 118 ([…] […] […] […] […] […] […] AADVLTVDQIKQCEELGILVDRDDQGTLLQIFTKPVGDRPTIFIXIIQRIGC […]), the native G. max HPPD (Accession number: ABQ96868) • GmHPPD.1=GmHPPD (SEQ ID NO: 118) mutated to substitute its motif 1 with motif 1 of SEQ ID NO: 1—i.e. to include amino acid sequences SEQ ID NO: 9-10 or 38; • GmHPPD.2=GmHPPD (SEQ ID NO: 118) mutated to substitute its motif 6.2 (SEQ ID NO: 68) first Y with motif 6.2 of SEQ ID NO: 1 (SEQ ID NO: 20)—i.e. to include the mutation Tyr185Phe to include SEQ ID NO: 157; • GmHPPD.4=GmHPPD (SEQ ID NO: 118) mutated to substitute its motif 2.1 (SEQ ID NO: 57) with motif 2.1 of SEQ ID NO: 1 (SEQ ID NO: 11)—i.e. to include the mutation Ala254Trp to include SEQ ID NO: 129.

The target in data set [4] is T1, Arabidopsis thaliana HPPD (AtHPPD) (Arabidopsis thaliana, UniProt P93836).
T1 construct: expressed in transfected cells; host or cells: E. coli BL21 (DE3), pET16 vector
T1 sequence (P93836 1-445): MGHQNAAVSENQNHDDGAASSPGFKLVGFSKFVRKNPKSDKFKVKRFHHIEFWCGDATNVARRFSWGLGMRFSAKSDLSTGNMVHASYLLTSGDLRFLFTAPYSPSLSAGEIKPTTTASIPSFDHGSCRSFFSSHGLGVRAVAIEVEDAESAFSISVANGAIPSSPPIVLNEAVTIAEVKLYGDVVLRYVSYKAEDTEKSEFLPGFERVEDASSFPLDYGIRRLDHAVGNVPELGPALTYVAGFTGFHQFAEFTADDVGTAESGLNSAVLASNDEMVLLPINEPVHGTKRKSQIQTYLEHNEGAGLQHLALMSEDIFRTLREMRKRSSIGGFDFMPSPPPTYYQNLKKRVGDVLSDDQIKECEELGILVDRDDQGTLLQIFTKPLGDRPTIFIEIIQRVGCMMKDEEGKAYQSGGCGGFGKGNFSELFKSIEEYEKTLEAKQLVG
As to the kind of experiment: Bacterial HPPD-activity assay, E. coli BL21 (DE3) transformed with Arabidopsis thaliana hppd cDNA. The format is cell-based. The following applies: E. coli BL21 (DE3) on agar plates with concentration gradient of HPPD inhibitors, 25° C., 4 days.
Experimental: as §1, §2

The mark [5] stands for this setting: control (wt plants), Tembotrione 2500 and 500 μg/ml, Mesotrione 50 μg/ml, Topramezon 150 and 30 μg/ml, Isoxaflutole 50 μg/ml.
Where [6] appears, read: T2 generation, Tembotrione x1=2500 and x0.2=500 μg/ml, Mesotrione x1=50 μg/ml, Topramezon x1=150 and x0.2=30 μg/ml, Isoxaflutole x1=50 μg/ml.

Take `CS(=O)(=O)c1cc(C(F)(F)F)ccc1C(=O)c1cnoc1C1CC1` [Isoxaflutole, isoxaflutole]: the “plant growth in the presence of the herbicide” value (“plant growth in the presence” below) was “no plant growth or an acute growth inhibition and leaf bleaching” in data set [1] (setting [5]); “enabled growth” in data set [2] (setting [6]).
Take `CS(=O)(=O)c1ccc(C(=O)C2C(=O)CCCC2=O)c([N+](=O)[O-])c1` [Mesotrione, mesotrione]: the “plant growth in the presence” value in data set [1] (setting [5]) was “no plant growth or an acute growth inhibition and leaf bleaching”; in data set [2] (setting [6]) it was “enabled growth”.
As for `Cc1nn(C)c(OCC(=O)c2ccccc2)c1C(=O)c1ccc(Cl)cc1Cl` [Pyrazoxyfen, pyrazoxyfen], the “HPPD inhibitor concentration on plates at which HPPD activity (brown halo) was still detected” value in data set [3] was not above 1250 µg/mL.
In the case of `Cc1c(C(=O)c2cnn(C)c2O)ccc(S(C)(=O)=O)c1C1=NOCC1` [Topramezone, topramezone], the “plant growth in the presence” value in data set [1] (setting [5]) is “no plant growth or an acute growth inhibition and leaf bleaching”; in data set [2] (setting [6]), “enabled growth”.
For the molecule `CS(=O)(=O)c1ccc(C(=O)C2C(=O)CCCC2=O)c(Cl)c1COCC(F)(F)F` [Tembotrione, tembotrione], the “plant growth in the presence” value in data set [1] (control (non-transformed), 0.1% and 0.05% Tembotrione (Laudis)) is “no plant growth”; in data set [1] (setting [5]), “no plant growth or an acute growth inhibition and leaf bleaching”; in data set [2] (T1 plants on Basta selection, 0.1% and 0.05% Tembotrione (Laudis) 3-4 days post germination), “enabled growth”; in data set [2] (setting [6]) it was “enabled growth”.

B1: GmHPPD: the native G. max HPPD (Accession number: ABQ96868) (protein)
chain: MPIPCNEIQAQAQAQAQPGFKLVGFKNFVRTNPKSDRFQVNRFHHIEFWCTDATNASRRFSWGLGMPIVAKSDLSTGNQIHASYLLRSGDLSFLFSAPYSPSLSAGSSAASSASIPSFDAATCLAFAAKHGFGVRAIALEVADAEAAFSASVAKGAEPASPPVLVDDRTGFAEVRLYGDVVLRYVSYKDAAPQAPHADPSRWFLPGFEAAASSSSFPELDYGIRRLDHAVGNVPELAPAVRYLKGFSGFHEFAEFTAEDVGTSESGLNSVVLANNSETVLLPLNEPVYGTKRKSQIETYLEHNEGAGVQHLALVTHDIFTTLREMRKRSFLGGFEFMPSPPPTYYANLHNRAADVLTVDQIKQCEELGILVDRDDQGTLLQIFTKPVGDRPTIFIXIIQRIGCMVEDEEGKVYQKGACGGFGKGNFSELFKSIEEYEKTLEAKRTA
modifications: not fully specified; X: residue not identified in the source
On to B1, for which, in the data set on Camelina plants, the “herbicide tolerance of transformed plants” value is listed as “highly damaged”. The “HPPD enzymatic activity (brown halo)” value is reported as “only minor enzymatic activity” with G. max HPPD (5 μM tembotrione) and “essentially no enzymatic activity” in the data set with G. max HPPD (10 μM tembotrione).

B2: AtHPPD: HPPD from Arabidopsis thaliana hppd cDNA (accession no. AF047834) (protein, UniProt P93836 1-445, looked up)
4-hydroxyphenylpyruvate …: T1 sequence (P93836 1-445)
As for B2, in data set [4], the “HPPD activity (brown halo) on HPPD inhibitor plates” value is reported as “poor HPPD activity if at all”.

Values taken from US11926837B2, “Compositions and methods for controlling plant growth” (PLANTARC BIO LTD., priority 2019, dated 2024).
